Measurements as given in patent US7052850B2, “Isolated human EDG-4 receptor” (priority 1997, dated 2006).

What was measured:
HeLa cells [1] = test: Cytotoxicity (viable cell count at 24 hr) in HeLa cells; details: NDGA 40 μM
Method: For this purpose, an experiment was conducted to measure cytotoxicity in parallel with IL-8 response.

HeLa cells [2] = test: IL-8 response (IL-8 ELISA) in HeLa cells; type: cell-based, human
Method: • Cells: HeLa (adenocarcinoma, human) • Media: DMEM/F12+10% FBS Adherent • 1) Cells were seeded at 0.2×10^6 cells/well in 6-well plates. • 2) Confluency of cells after 24–32 hrs was between 60–70%. B. Overnight Serum-Starvation • 1) Media was aspirated (no PBS wash). • 2) 1.5 ml 0.5% FBS media was added to each well. C. Treatments and Collection • 1) Made up all required solutions in 0.5% FBS media (control). Handling of […] for use in NF-κB experiments requires that sonication, commonly used to resuspend LPA, not be done; NF-κB may be activated by lipid peroxides created through vigorous frothing. Solutions:
D. Detection of Interleukin-8 (IL-8) using an IL-8 ELISA (Enzyme-Linked ImmunoSorbent Assay). • 1) The Quantikine Human IL-8 Immuno Assay Kit was obtained from R&D Systems (Cat. D8050). • 2) The kit and all samples were allowed to equlibrate to room temperature prior to use. • 3) All reagents were provided in the kit and prepared according to the instructions provided. • 4) The assay procedure was followed as recommended in the kit for cell culture supernatant samples. • 5) ELISA was performed on 50 μl samples of culture supernatant and duplicate samples were measured for each well. Each treatment was performed on triplicate wells. • 6) Plates were read on UV max kinetic microplate reader (Molecular Devices), set to 450 nm and correction set to 575 nm, using Wsoftmax sotware version 2.34.
• 1) Cells were seeded at 2.5×10^4 cells/well in 24-well plates. • 2) Confluency of cells after 24–32 hrs was between 60–70%. B. Overnight Serum-Starvation and PTX Pre-Treatment • 1) Media was aspirated (no PBS wash). • 2) 0.5 ml 0.5% FBS media was added to all wells not requiring PTX pre-treatment. • 3) For well requiring PTX; 0.5 ml 0.5% FBS media containing 50 ng/ml PTX (1 volume PTX (RBI Cat. P140): 1 volume DTT, incubate 37° C. for 30 minutes then dilute to 50 ng/ml) was added. C. Treatments and Collection • 1) Made up all required solutions in 0.5% FBS media (control). […] D. Refer to Procedure #1 For HeLa Cells (D).

293-EBNA cells = type: cell-based
Method: (§1) Transfection of EDG-4, expression, pretreatment and treatment of 293-EBNA cells expressing recombinant human EDG-4 was carried out essentially as described in “Example 11. […] Results were tabulated in Microsoft Excel, and analyzed with GraphPad Prism sotfware. […] The luciferase response was expressed as fold response, after subtracting any endogenous response in pcDNA3-transfected cells at a given concentration of compound.

human EDG-4 = molecular target: T1, human EDG-4 (Homo sapiens, UniProt O95136, F273L/I205V); test: Relative potency and efficacy of agonists, luciferase (SRE) reporter in 293-EBNA cells expressing recombinant human EDG-4; type: cell-based; details: for Rank (EMax): rank of efficacy
T1 construct: a 1059 bp open reading frame (excluding the stop codon) corresponding to the complete human edg-4 coding region; expressed in transfected cells; host or cells: 293-EBNA
Method: as §1

[3] = system: Human Umbilical Vein Endothelial Cells (HUVEC); test: IL-8 response in primary cultured HUVEC; type: cell-based; details: 5 μM, 6 hr
Method: Cells: HUVEC (Clonetics, Cat. CC-2519) were passaged according to supplier's instructions and used at passage 3. Cells were plated at 20,000 cells/well into 24-well plates. […] LPA induced a 3-fold IL-8 increase at this concentration. […] As shown below in FIG. 23, three cloned edge receptors respond to LPA as an agonist, and all three appear to transduce NF-κB activation in an agonist-dependent manner.

rat EDG-4 = rat EDG-4 (Rattus norvegicus, UniProt P47752); test: NF-κB-tk-p4Luc luciferase reporter in 293-EBNA cells, rat EDG-4; type: cell-based; set-up: transient transfection with a eukaryotic expression vector expressing full-length rat edg-4 cDNA; expressed in transfected cells; host or cells: 293-EBNA; details: Assay 1; 24 hrs
Excerpt: First, the NF-κB response element was reconstructed in a new reporter construct (p4Luc) suitable for stable maintenance as an episome in primate cells. […] The p4-Luc reporter used the backbone of pREP4 (Invitrogen; Cat. V004-50), which contains the EBV orgin of replicaiton (EBVoni), as well as the EBNA-1 viral antigen required to maintain EBVoti containing plasmids as stable episoms in primate cells, and a prokayotic selection marker. A dominant eukaryotic selection marker for zeocin resistance was substituted for expression in pREP4. The promoter of pREP4 was then excised and replaced with a multi-cloning site for introduction of promoter/enhancer inserts. The NF-κB inser of the previous CAT reporter was subcloned into this site and all cloning junctions were sequenced to verify the structure of the plasmid, called NF-κB-tk-p4Luc.
• 1) 150 mm plates of 293-EBNA obtained from Invitrogen (Cat. R620-07) with a confluency of 18 80% were used for transfection. • 2) 6.6 μg NF-κB-tk-p4Luc reporter DNA and 6.6 μg of pC3-redg4 (expressing rat EDG-4), or pcDNA3 DNA was diluted in 500 μl OPTI-MEM (Gibco; Cat. 31985-062) • 3) 96.8 μl Lipofectamine (Gibco; Cat. 18324-020) was diluted in 500 μl of OPTI-MEM. • 4) The 2 solutions were mixed gently and the tube was incubated for 30 min at room temperature. • 5) The 293-EBNA plates were washed once with PBS and 13 ml OPTI-MEM was added to each plate, • 6) 6 ml OPTI-UMM was added to each transfection tube and this was added to a plate of 293EBNA cells. The plates were left for 4 hrs at 37° C. in a 5% CO2 incubator. • 7) After 4 his, the media was removed and replaced with frest 10% FBS media. Day 2: • 1) Transfected cells were washed, typsinized with 1× tryspin, resuspended in 10 ml media and counted. • 2) 0.02×10 ^6 cells were plated per well of a 96-well Blackview plate coated with polyD-lysine. No cells were plated in the outside wells of the 96-well plate. Two 96-well plates were seeded for each transfection. Day 3: • 1) Cells were washed with PBS and 140 μl serum-free media (SFM) added to each well. Plates were incubated in 37° C. incubator for 6 hrs. • 2) After 6 hrs, media was removed and cells treated with compounds diluted in 0.5% FBS media (140 μl added to each well).
Day 4 Luciferase Assay • 1) Luclite kit (Packard; Cat. 6016911) was used for luciferase assay. All reagents were brought to room temperature before use. • 2) Supernatant was transferred to a new 96-well plate and stored at −20 C. for rupture IL-8 measurement. • 3) 50 μl 0.5 M HEPES pH 7.8 buffer (1 mM MgCl21 mM CaCl2) was addeded to all wells of 96-well plate. Black adhesive backing (polyfitronics) was aligned to the bottom of the viewplate. • 4) Luclite substrate was made up by adding 10 ml substate diluent to 1 vial lyophilized substrate. Reconstituted substrate was kept under a dark container. 50 μl substrate was added to each well. • 5) A clear adhesive plate sealer was adjusted on to the viewplate and sealer rubbed over the plate with a Kimwipe. The plate was shaken on a plate shaker at 500 rpm for 5 seconds right side up and then upside down. A stop plate was placed on top of the blackview plate to keep it in the dark. • 6) Plates were incubated at room temperature for 30 min. • 7) After incubation, plates were counted in a 12 detector Packard Top Count on a program without dark delay.

HL-60 cells = test: IL-8 response in HL-60 cells; type: cell-based, human; details: 1, 6 or 24 hours, S1P or LPA up to 3 μM, TNF-α 10 ng/ml
[4] = S1P 1 μM, NDGA 40 or 10 μM, NAC 30 mM, 30 minute pre-treatment

T1 sequence (O95136 whole entry I205V/F273L): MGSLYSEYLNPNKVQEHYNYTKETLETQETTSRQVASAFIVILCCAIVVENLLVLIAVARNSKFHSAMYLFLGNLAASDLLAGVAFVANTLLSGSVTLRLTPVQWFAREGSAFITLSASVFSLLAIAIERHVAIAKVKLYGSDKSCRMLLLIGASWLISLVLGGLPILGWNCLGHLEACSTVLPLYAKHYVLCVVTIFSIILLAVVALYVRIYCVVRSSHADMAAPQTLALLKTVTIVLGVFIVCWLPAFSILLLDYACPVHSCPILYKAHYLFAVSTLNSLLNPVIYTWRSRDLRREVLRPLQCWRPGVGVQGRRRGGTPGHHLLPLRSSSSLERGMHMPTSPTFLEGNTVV
Sequence of rat EDG-4 (P47752 whole entry): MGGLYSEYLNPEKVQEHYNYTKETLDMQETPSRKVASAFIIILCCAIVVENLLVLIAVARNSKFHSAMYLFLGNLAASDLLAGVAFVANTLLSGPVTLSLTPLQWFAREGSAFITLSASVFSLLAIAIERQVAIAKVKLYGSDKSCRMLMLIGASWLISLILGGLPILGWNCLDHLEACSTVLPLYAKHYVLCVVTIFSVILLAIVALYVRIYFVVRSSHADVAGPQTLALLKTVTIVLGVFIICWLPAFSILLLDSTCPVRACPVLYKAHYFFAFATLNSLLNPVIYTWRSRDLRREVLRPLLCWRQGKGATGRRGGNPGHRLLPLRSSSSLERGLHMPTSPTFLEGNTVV

What does the source list for `CC(Cc1ccc(O)c(O)c1)C(C)Cc1ccc(O)c(O)c1` (stereo not shown) [NDGA]?
toxicity (HeLa cells [1]): some toxicity; inhibition of IL-8 response to S1P (HeLa cells [2]; S1P 1 μM, NDGA 40 μM): completely inhibited; inhibition of IL-8 response to S1P (HeLa cells [2]; [4]): significantly inhibited

What does the source list for `CCCCCCCCCCCCC/C=C/[C@@H](O)C(N)CO[C@@H]1O[C@H](CO)[C@@H](O)[C@H](O)[C@@H]1O` (stereo partly shown) [Glucospychosin, glucopsychosine]?
concentration at which cytotoxicity was seen (293-EBNA cells): ^aCytotoxicity was seen at 10 μM or higher concentrations, preventing quantitative determination of EC50 or EMax; agonist character at EDG-4 (human EDG-4): poor potency and efficacy; Rank (EMax) (human EDG-4): 4

How did the “concentration at which cytotoxicity was seen” value (293-EBNA cells) turn out when `CCCCCCCCCCCCC/C=C/[C@@H](O)[C@@H](N)CO[C@@H]1O[C@H](CO)[C@H](O)[C@H](O)[C@H]1O` [Psychosine, psychosine] was run?
Its value is “^aCytotoxicity was seen at 10 μM or higher concentrations, preventing quantitative determination of EC50 or EMax”.

What about the “IL-8 levels, increase over untreated controls” value [3] of the same compound?
Its value is “Marginal increases”.

What about the “agonist character at EDG-4” value (human EDG-4) of the same compound?
Its value is “poor potency and efficacy”.

And the “Rank (EMax)” value (human EDG-4)?
Its value is 5.

For `CCCCCCCCCCCCCCC[C@@H](O)[C@@H](N)COP(=O)(O)O` [Dihydro-S1P, dihydrosphingosine 1-phosphate], which “agonist character at EDG-4” value (human EDG-4) is on record?
Its value is “partial agonist”.

What about the “Rank (EMax)” value (human EDG-4) of the same compound?
Its value is 3.

For `CCCCC/C=C\C/C=C\C/C=C\C/C=C\CCCC(=O)NCCO` [anandamide], which “IL-8 levels, increase over untreated controls” value [3] is on record?
Its value is “no responses”.

Which IL-8 induction (HeLa cells [2]; 6 hours, concentration series) does the source give for `CCCCCCCCCCCCC/C=C/[C@@H](O)[C@@H](N)CO` [sphingosine] here?
Its IL-8 induction is “lack of response”.

`CC(=O)N[C@@H](CS)C(=O)O` [NAC] was tested. Which “inhibition of IL-8 response to S1P” value (HeLa cells [2]; [4]) did it give?
Its value is “significantly inhibited”.

`CCCCCCCCCCCCCC(=O)O[C@@H]1[C@@H](C)[C@@]2(O)[C@@H](C=C(CO)C[C@]3(O)C(=O)C(C)=C[C@@H]23)[C@H]2C(C)(C)[C@]12OC(C)=O` [TPA] was tested. Which “induction of NF-κB reporter” value (rat EDG-4) did it give?
Its value is “strongly induced”.

How did the IL-8 release (HL-60 cells) turn out when TNF-α was run?
Its IL-8 release is “capable of responding at 6 or 24 hr”.

What does the source list for `Cc1ccc(C(=O)Nc2ccc(S(=O)(=O)O)c3cc(S(=O)(=O)O)cc(S(=O)(=O)O)c23)cc1NC(=O)c1cccc(NC(=O)Nc2cccc(C(=O)Nc3cc(C(=O)Nc4ccc(S(=O)(=O)O)c5cc(S(=O)(=O)O)cc(S(=O)(=O)O)c45)ccc3C)c2)c1` [Suramin]?
inhibition of IL-8 response to edelfosine (HeLa cells [2]; ET-18-OCH3 3 μM, PTX 50 ng/ml or suramin 1 mg/ml): potently inhibited; effect on IL-8 response to S1P (HeLa cells [2]; S1P 1 μM, suramin 1 mg/ml, 30 minute pre-treatment): extremely effective in blunting the IL-8 response to S1P
